Measurements from ChEMBL document CHEMBL1201862, “PubChem BioAssay data set” (2004).
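48-hour exposure; five concentrations; linearly interpolated endpoints. At the GI50, growth is halved.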 Calls of active or inactive are those of the source. Rule as the data show it: active = GI50 up to about 1.1 µM and inactive = higher.

What was measured:
Assay in all cases: NCI-60 cell line screen, 48 h
SK-MEL-2 = test system: SK-MEL-2
SW-620 = test system: SW-620
OVCAR-5 = test system: OVCAR-5
SF-295 = test system: SF-295
UO-31 = test system: UO-31
PC-3 = test system: PC-3
CAKI-1 = test system: CAKI-1
SR = test system: SR
OVCAR-8 = test system: OVCAR-8
NCI-H23 = test system: NCI-H23
KM12 = test system: KM12
DU-145 = test system: DU-145
RXF 393 = test system: RXF 393
SNB-19 = test system: SNB-19
RPMI-8226 = test system: RPMI-8226
U-251 = test system: U-251
A549 = test system: A549
HOP-62 = test system: HOP-62
SK-MEL-28 = test system: SK-MEL-28
HCC 2998 = test system: HCC 2998
CCRF-CEM = test system: CCRF-CEM
UACC-257 = test system: UACC-257
786-0 = test system: 786-0
HL-60 = test system: HL-60
UACC-62 = test system: UACC-62
OVCAR-3 = test system: OVCAR-3
MDA-MB-435 = test system: MDA-MB-435
MCF7 = test system: MCF7
IGROV-1 = test system: IGROV-1
SN12C = test system: SN12C
NCI-H226 = test system: NCI-H226
HT-29 = test system: HT-29
NCI-H460 = test system: NCI-H460
K562 = test system: K562
A498 = test system: A498
ACHN = test system: ACHN
SF-539 = test system: SF-539
LOX IMVI = test system: LOX IMVI
MDA-N = test system: MDA-N
BT-549 = test system: BT-549
OVCAR-4 = test system: OVCAR-4
HCT-116 = test system: HCT-116
MOLT-4 = test system: MOLT-4
COLO 205 = test system: COLO 205
M14 = test system: M14
SNB-75 = test system: SNB-75
MDA-MB-231 = test system: MDA-MB-231
Malme-3M = test system: Malme-3M
SK-OV-3 = test system: SK-OV-3
HOP-92 = test system: HOP-92
EKVX = test system: EKVX
SK-MEL-5 = test system: SK-MEL-5
NCI-H522 = test system: NCI-H522
NCI/ADR-RES = test system: NCI/ADR-RES
TK-10 = test system: TK-10
HCT-15 = test system: HCT-15
Hs-578T = test system: Hs-578T
SF-268 = test system: SF-268

With `Cc1ccc2[nH]c3c(c2c1)CCC/C3=N/N=C(N)N` the GI50 (SK-MEL-2) was 1.69 µM (inactive), the GI50 (SW-620) was 3.2 µM (inactive) and the GI50 (OVCAR-5) was 2.09 µM (inactive). The GI50 (SF-295) was 1.65 µM (inactive), the GI50 (UO-31) was 1.95 µM (inactive) and the GI50 (PC-3) was 2.64 µM (inactive). For the same molecule, the GI50 (CAKI-1) was 1.39 µM (inactive), the GI50 (SR) was 2.22 µM (inactive) and the GI50 (OVCAR-8) was 1.91 µM (inactive). For the same molecule, the GI50 (NCI-H23) was 3.06 µM (inactive), the GI50 (KM12) was 1.63 µM (inactive) and the GI50 (DU-145) was 1.71 µM (inactive). For the same molecule, the GI50 (RXF 393) was 2.15 µM (inactive), the GI50 (SNB-19) was 1.99 µM (inactive) and the GI50 (RPMI-8226) was 2.5 µM (inactive). The GI50 (U-251) was 2.1 µM (inactive), the GI50 (A549) was 1.89 µM (inactive) and the GI50 (HOP-62) was 1.91 µM (inactive). For the same molecule, the GI50 (SK-MEL-28) was 2.24 µM (inactive), the GI50 (HCC 2998) was 1.7 µM (inactive) and the GI50 (CCRF-CEM) was 2.29 µM (inactive). The GI50 (UACC-257) was 2.51 µM (inactive), the GI50 (786-0) was 2.07 µM (inactive) and the GI50 (HL-60) was 9.4 µM (inactive). For the same molecule, the GI50 (UACC-62) was 2.16 µM (inactive), the GI50 (OVCAR-3) was 2.64 µM (inactive) and the GI50 (MDA-MB-435) was 1.72 µM (inactive). For the same molecule, the GI50 (MCF7) was 1.44 µM (inactive), the GI50 (IGROV-1) was 1.62 µM (inactive) and the GI50 (SN12C) was 1.58 µM (inactive). The GI50 (NCI-H226) was 2.11 µM (inactive), the GI50 (HT-29) was 1.64 µM (inactive) and the GI50 (NCI-H460) was 1.4 µM (inactive). The GI50 (K562) was 2.08 µM (inactive), the GI50 (A498) was 7.14 µM (inactive) and the GI50 (ACHN) was 1.89 µM (inactive). For the same molecule, the GI50 (SF-539) was 1.62 µM (inactive), the GI50 (LOX IMVI) was 1.84 µM (inactive) and the GI50 (MDA-N) was 1.49 µM (inactive). The GI50 (BT-549) was 14.5 µM (inactive), the GI50 (OVCAR-4) was 2.76 µM (inactive) and the GI50 (HCT-116) was 2.79 µM (inactive). The GI50 (MOLT-4) was 2.09 µM (inactive), the GI50 (COLO 205) was 1.62 µM (inactive) and the GI50 (M14) was 1.57 µM (inactive). For the same molecule, the GI50 (SNB-75) was 1.34 µM (inactive), the GI50 (MDA-MB-231) was 1.39 µM (inactive) and the GI50 (Malme-3M) was 2.11 µM (inactive). The GI50 (SK-OV-3) was 19.1 µM (inactive), the GI50 (HOP-92) was 2.33 µM (inactive) and the GI50 (EKVX) was 1.92 µM (inactive). The GI50 (SK-MEL-5) was 1.9 µM (inactive), the GI50 (NCI-H522) was 1.87 µM (inactive) and the GI50 (NCI/ADR-RES) was 1.66 µM (inactive).
`CCCc1c(O)nc2ccccc2c1O` was tested, and the GI50 (SW-620) was > 100 µM (inactive), the GI50 (OVCAR-5) was > 100 µM (inactive) and the GI50 (SF-295) was > 100 µM (inactive). For the same molecule, the GI50 (UO-31) was > 100 µM (inactive), the GI50 (PC-3) was > 100 µM (inactive) and the GI50 (CAKI-1) was > 100 µM (inactive). The GI50 (SR) was > 100 µM (inactive), the GI50 (OVCAR-8) was > 100 µM (inactive) and the GI50 (NCI-H23) was > 100 µM (inactive). The GI50 (KM12) was > 100 µM (inactive), the GI50 (DU-145) was > 100 µM (inactive) and the GI50 (SNB-19) was > 100 µM (inactive). For the same molecule, the GI50 (RPMI-8226) was > 100 µM (inactive), the GI50 (U-251) was > 100 µM (inactive) and the GI50 (A549) was > 100 µM (inactive). The GI50 (HOP-62) was > 100 µM (inactive), the GI50 (SK-MEL-28) was > 100 µM (inactive) and the GI50 (HCC 2998) was > 100 µM (inactive). For the same molecule, the GI50 (CCRF-CEM) was > 100 µM (inactive), the GI50 (UACC-257) was > 100 µM (inactive) and the GI50 (786-0) was > 100 µM (inactive). The GI50 (HL-60) was > 100 µM (inactive), the GI50 (TK-10) was > 100 µM (inactive) and the GI50 (OVCAR-3) was > 100 µM (inactive). For the same molecule, the GI50 (MDA-MB-435) was > 100 µM (inactive), the GI50 (MCF7) was > 100 µM (inactive) and the GI50 (IGROV-1) was > 100 µM (inactive). For the same molecule, the GI50 (SN12C) was > 100 µM (inactive), the GI50 (NCI-H226) was > 100 µM (inactive) and the GI50 (HT-29) was > 100 µM (inactive). The GI50 (NCI-H460) was > 100 µM (inactive), the GI50 (K562) was > 100 µM (inactive) and the GI50 (A498) was > 100 µM (inactive). For the same molecule, the GI50 (ACHN) was > 100 µM (inactive), the GI50 (SF-539) was > 100 µM (inactive) and the GI50 (LOX IMVI) was > 100 µM (inactive). For the same molecule, the GI50 (MDA-N) was > 100 µM (inactive), the GI50 (BT-549) was > 100 µM (inactive) and the GI50 (OVCAR-4) was > 100 µM (inactive). The GI50 (HCT-116) was > 100 µM (inactive), the GI50 (MOLT-4) was > 100 µM (inactive) and the GI50 (COLO 205) was > 100 µM (inactive). For the same molecule, the GI50 (SNB-75) was > 100 µM (inactive), the GI50 (MDA-MB-231) was > 100 µM (inactive) and the GI50 (Malme-3M) was > 100 µM (inactive). For the same molecule, the GI50 (HOP-92) was > 100 µM (inactive), the GI50 (HCT-15) was greater than 100 µM and the GI50 (EKVX) was > 100 µM (inactive). The GI50 (SK-MEL-5) was > 100 µM (inactive), the GI50 (Hs-578T) was > 100 µM (inactive) and the GI50 (NCI-H522) was > 100 µM (inactive). The GI50 (NCI/ADR-RES) was > 100 µM (inactive).
In the case of `COC(=O)c1ccc(NCc2cc(OC)ccc2OC)cc1`, the GI50 (SK-MEL-2) is reported as 54.6 µM (inactive), the GI50 (SW-620) is reported as 58.2 µM (inactive) and the GI50 (OVCAR-5) is reported as > 100 µM (inactive). For the same molecule, the GI50 (UO-31) was 45.6 µM (inactive), the GI50 (SF-268) was > 100 µM (inactive) and the GI50 (PC-3) was 39 µM (inactive). The GI50 (CAKI-1) was 33.7 µM (inactive), the GI50 (SR) was 38 µM (inactive) and the GI50 (OVCAR-8) was > 100 µM (inactive). For the same molecule, the GI50 (NCI-H23) was 65 µM (inactive), the GI50 (KM12) was 31.1 µM (inactive) and the GI50 (DU-145) was > 100 µM (inactive). The GI50 (SNB-19) was > 100 µM (inactive), the GI50 (RPMI-8226) was 65.8 µM (inactive) and the GI50 (U-251) was 74.3 µM (inactive). For the same molecule, the GI50 (A549) was 38.7 µM (inactive), the GI50 (SK-MEL-28) was 39.1 µM (inactive) and the GI50 (HCC 2998) was 67.6 µM (inactive). The GI50 (CCRF-CEM) was 42.1 µM (inactive), the GI50 (UACC-257) was 52.1 µM (inactive) and the GI50 (786-0) was > 100 µM (inactive). For the same molecule, the GI50 (HL-60) was 26.3 µM (inactive), the GI50 (UACC-62) was 44.8 µM (inactive) and the GI50 (TK-10) was 24 µM (inactive). For the same molecule, the GI50 (OVCAR-3) was 59.2 µM (inactive), the GI50 (MDA-MB-435) was 21.8 µM (inactive) and the GI50 (MCF7) was 26.7 µM (inactive). The GI50 (IGROV-1) was > 100 µM (inactive), the GI50 (NCI-H226) was 69.8 µM (inactive) and the GI50 (HT-29) was 28.8 µM (inactive). The GI50 (K562) was 35.6 µM (inactive), the GI50 (A498) was 26.2 µM (inactive) and the GI50 (ACHN) was 34.5 µM (inactive). The GI50 (SF-539) was 68.5 µM (inactive), the GI50 (LOX IMVI) was 24.3 µM (inactive) and the GI50 (MDA-N) was 20.8 µM (inactive). For the same molecule, the GI50 (BT-549) was 53.8 µM (inactive), the GI50 (OVCAR-4) was > 100 µM (inactive) and the GI50 (HCT-116) was 45 µM (inactive). For the same molecule, the GI50 (MOLT-4) was 33.3 µM (inactive), the GI50 (COLO 205) was 35.6 µM (inactive) and the GI50 (M14) was 40.6 µM (inactive). For the same molecule, the GI50 (SNB-75) was 34.2 µM (inactive), the GI50 (MDA-MB-231) was 46.7 µM (inactive) and the GI50 (Malme-3M) was 36.1 µM (inactive). The GI50 (SK-OV-3) was 57 µM (inactive), the GI50 (HOP-92) was 42.7 µM (inactive) and the GI50 (HCT-15) was 30.6 µM. For the same molecule, the GI50 (EKVX) was 80 µM (inactive), the GI50 (SK-MEL-5) was 31.2 µM (inactive) and the GI50 (Hs-578T) was 92 µM (inactive). The GI50 (NCI-H522) was 38.4 µM (inactive) and the GI50 (NCI/ADR-RES) was 30.3 µM (inactive).
